In US20100093756A1, “HETEROARYL SUBSTITUTED THIENO[2,3-d]PYRIMIDINE AND THEIR USE AS ADENOSINE A2a RECEPTOR ANTAGONISTS” (priority 2008, published 2010):
Structures can show the parent of a compound that is named as a salt.

How the values were obtained:
[1] = molecular target: T1, human adenosine A2a receptor (Homo sapiens, UniProt P29274); test: Adenosine A2a Receptor Functional Assay (A2AGAL2); type: cell-based; details: CHO-K1 cells, cAMP inducible beta-galactosidase reporter, 15 nM NECA agonist challenge
T1 construct: expressed in transfected cells; host or cells: CHO-K1
T1 sequence (P29274 whole entry): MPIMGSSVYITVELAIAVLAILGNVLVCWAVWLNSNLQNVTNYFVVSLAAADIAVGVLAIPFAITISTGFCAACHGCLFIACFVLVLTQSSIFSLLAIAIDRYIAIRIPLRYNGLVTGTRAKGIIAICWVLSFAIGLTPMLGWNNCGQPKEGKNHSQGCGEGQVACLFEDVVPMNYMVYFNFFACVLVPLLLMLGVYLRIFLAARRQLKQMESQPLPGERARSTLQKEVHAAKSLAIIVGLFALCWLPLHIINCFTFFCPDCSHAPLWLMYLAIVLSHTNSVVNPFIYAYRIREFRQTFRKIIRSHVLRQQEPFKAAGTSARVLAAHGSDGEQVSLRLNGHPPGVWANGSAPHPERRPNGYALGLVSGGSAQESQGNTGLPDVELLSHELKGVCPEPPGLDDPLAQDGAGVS
Procedure: Adenosine A2a Receptor Functional Assay (A2AGAL2)
To initiate the functional assay, cryopreserved CHO-K1 cells overexpressing the human adenosine A2a receptor and containing a cAMP inducible beta-galactosidase reporter gene were thawed, centrifuged, DMSO containing media removed, and then seeded with fresh culture media into clear 384-well tissue culture treated plates (BD #353961) at a concentration of 10K cells/well. Prior to assay, these plates were cultured for two days at 37° C., 5% CO2, 90% Rh. On the day of the functional assay, culture media was removed and replaced with 45 uL assay medium (Hams/F-12 Modified (Mediatech #10-080CV) supplemented w/0.1% BSA). Test compounds were diluted and 11 point curves created at a 1000× concentration in 100% DMSO. Immediately after addition of assay media to the cell plates, 50 nL of the appropriate test compound antagonist or agonist control curves were added to cell plates using a Cartesian Hummingbird. Compound curves were allowed to incubate at room temperature on cell plates for approximately 15 minutes before addition of a 15 nM NECA (Sigma E2387) agonist challenge (5 uL volume). A control curve of NECA, a DMSO/Media control, and a single dose of Forskolin (Sigma F3917) were also included on each plate. After additions, cell plates were allowed to incubate at 37° C., 5% CO2, 90% Rh for 5.5-6 hours. After incubation, media was removed, and cell plates were washed 1×50 uL with DPBS w/o Ca & Mg (Mediatech 21-031-CV). Into dry wells, 20 uL of 1× Reporter Lysis Buffer (Promega E3971 (diluted in dH2O from 5× stock)) was added to each well and plates frozen at −20° C. overnight. For β-galactosidase enzyme colorimetric assay, plates were thawed out at room temperature and 20μL 2× assay buffer (Promega) was added to each well. Color was allowed to develop at 37° C., 5% CO2, 90% Rh for 1-1.5 h or until reasonable signal appeared. The calorimetric reaction was stopped with the addition of 60 μL/well 1M sodium carbonate. Plates were counted at 405 nm on a SpectraMax Microplate Reader (Molecular Devices). Data was analyzed in Microsoft Excel and IC/EC50 curves were fit using a standardized macro.

[2] = molecular target: T2, human adenosine A1 receptor (Homo sapiens, UniProt P30542); test: Adenosine A1 Receptor Functional Assay (A1GAL2); type: cell-based; details: CHO-K1 cells, cAMP inducible beta-galactosidase reporter, 4 nM r-PIA/1 uM Forskolin agonist challenge
T2 construct: expressed in transfected cells; host or cells: CHO-K1
T2 sequence (P30542 1-326): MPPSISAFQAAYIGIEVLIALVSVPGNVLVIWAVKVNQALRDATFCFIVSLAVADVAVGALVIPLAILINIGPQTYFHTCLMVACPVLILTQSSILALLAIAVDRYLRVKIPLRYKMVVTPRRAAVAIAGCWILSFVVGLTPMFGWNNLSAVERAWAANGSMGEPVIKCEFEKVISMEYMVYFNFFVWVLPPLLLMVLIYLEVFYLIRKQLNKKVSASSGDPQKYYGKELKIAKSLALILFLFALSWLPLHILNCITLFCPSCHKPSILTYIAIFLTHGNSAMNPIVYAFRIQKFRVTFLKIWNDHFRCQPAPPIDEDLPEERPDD
Procedure: Adenosine A1 Receptor Functional Assay (A1GAL2)
To initiate the functional assay, cryopreserved CHO-K1 cells overexpressing the human adenosine A1 receptor and containing a cAMP inducible beta-galactosidase reporter gene were thawed, centrifuged, DMSO containing media removed, and then seeded with fresh culture media into clear 384-well tissue culture treated plates (BD #353961) at a concentration of 10K cells/well. Prior to assay, these plates were cultured for two days at 37° C., 5% CO2, 90% Rh. On the day of the functional assay, culture media was removed and replaced with 45 uL assay medium (Hams/F-12 Modified (Mediatech #10-080CV) supplemented w/0.1% BSA). Test compounds were diluted and 11 point curves created at a 1000× concentration in 100% DMSO. Immediately after addition of assay media to the cell plates, 50 nL of the appropriate test compound antagonist or agonist control curves were added to cell plates using a Cartesian Hummingbird. Compound curves were allowed to incubate at room temperature on cell plates for approximately 15 minutes before addition of a 4 nM r-PIA (Sigma P4532)/1 uM Forskolin (Sigma F3917) agonist challenge (5 uL volume). A control curve of r-PIA in 1 uM Forskolin, a DMSO/Media control, and a single dose of Forskolin were also included on each plate. After additions, cell plates were allowed to incubate at 37° C., 5% CO2, 90% Rh for 5.5-6 hours. After incubation, media was removed, and cell plates were washed 1×50 uL with DPBS w/o Ca & Mg (Mediatech 21-031-CV). Into dry wells, 20 uL of 1× Reporter Lysis Buffer (Promega E3971 (diluted in dH2O from 5× stock)) was added to each well and plates frozen at −20° C. overnight. For β-galactosidase enzyme colorimetric assay, plates were thawed out at room temperature and 20 μL 2× assay buffer (Promega) was added to each well. Color was allowed to develop at 37° C., 5% CO2, 90% Rh for 1-1.5 h or until reasonable signal appeared. The colorimetric reaction was stopped with the addition of 60 μL/well 1M sodium carbonate. Plates were counted at 405 nm on a SpectraMax Microplate Reader (Molecular Devices). Data was analyzed in Microsoft Excel and IC/EC50 curves were fit using a standardized macro.

[3] = molecular target: T3, human A2a adenosine receptor (Homo sapiens, UniProt P29274); test: Ligand Binding Assay for Adenosine A2a Receptor (A2A-B); details: HEK293 cell plasma membrane, radioligand [3H]CGS21680
T3 construct: purchased PerkinElmer RB-HA2a; host or cells: HEK293 plasma membrane
T3 sequence (P29274 whole entry): as the sequence (P29274 whole entry) above
Procedure: Ligand Binding Assay for Adenosine A2a Receptor (A2A-B)
Ligand binding assay of adenosine A2a receptor was performed using plasma membrane of HEK293 cells containing human A2a adenosine receptor (PerkinElmer, RB-HA2a) and radioligand [^3H]CGS21680 (PerkinElmer, NET1021). Assay was set up in 96-well polypropylene plate in total volume of 200 μL by sequentially adding 20 μL 1:20 diluted membrane, 130 μL assay buffer (50 mM Tris.HCl, pH7.4 10 mM MgCl2, 1 mM EDTA) containing [^3H] CGS21680, 50 μL diluted compound (4×) or vehicle control in assay buffer. Nonspecific binding was determined by […] NECA. Reaction was carried out at room temperature for 2 hours before filtering through 96-well GF/C filter plate pre-soaked in 50 mM Tris.HCl, pH7.4 containing 0.3% polyethylenimine. Plates were then washed 5 times with cold 50 mM Tris.HCl, pH7.4, dried and sealed at the bottom. Microscintillation fluid 30 μL was added to each well and the top sealed. Plates were counted on Packard Topcount for [^3H]. Data was analyzed in Microsoft Excel and GraphPad Prism programs. (Varani, K.; Gessi, S.; Dalpiaz, A.; Borea, P. A. British Journal of Pharmacology, 1996, 117, 1693)

Molecule	Ki [1] [nM]	Ki [2] [nM]	Ki [3] [nM]
CC(O)(c1cc2c(N)nc(-c3ccc(C(F)F)o3)nc2s1)c1ncccc1F (stereo not shown) [Example 30, 1-[4-Amino-2-(5-difluoromethyl-furan-2-yl)-thieno[2,3-d]pyrimidin-6-yl]-1-(3-fluoro-pyridin-2-yl)-ethanol]	11.4	403	16.3
CC(O)(c1ccccn1)c1cc2c(N)nc(-c3ccc(C(F)F)o3)nc2s1 (stereo not shown) [Example 36, 1-[4-Amino-2-(5-difluoromethyl-furan-2-yl)-thieno[2,3-d]pyrimidin-6-yl]-1-pyridin-2-yl-ethanol]	36	267	–
Nc1nc(-c2ccc(C(F)F)o2)nc2sc(C(=O)c3ncccc3F)cc12 [Example 25, [4-Amino-2-(5-difluoromethyl-furan-2-yl)-thieno[2,3-d]pyrimidin-6-yl]-(3-fluoro-pyridin-2-yl)-methanone]	24.9	838	–
Nc1nc(-c2ccc(C(F)F)o2)nc2sc(Cc3ncccc3Br)cc12 [Example 33, 6-(3-Bromo-pyridin-2-ylmethyl)-2-(5-difluoromethyl-furan-2-yl)-thieno[2,3-d]pyrimidin-4-ylamine]	2.18	21.2	–
Nc1nc(-c2ccc(C(F)F)o2)nc2sc(C(O)c3ccccn3)cc12 (stereo not shown) [Example 31, [4-Amino-2-(5-difluoromethyl-furan-2-yl)-thieno[2,3-d]pyrimidin-6-yl]-pyridin-2-yl-methanol]	4.82	46.9	–
Nc1nc(-c2ccc(C(F)F)o2)nc2sc(Cc3ncccc3F)cc12 [Example 24, 2-(5-Difluoromethyl-furan-2-yl)-6-(3-fluoro-pyridin-2-ylmethyl)-thieno[2,3-d]pyrimidin-4-ylamine]	6.21	92.6	–
Nc1nc(-c2ccc(C3CC3)o2)nc2sc(Cc3cccnc3)cc12 [Example 19, 2-(5-Cyclopropyl-furan-2-yl)-6-pyridin-3-ylmethyl-thieno[2,3-d]pyrimidin-4-ylamine]	409	579	–
COc1cccnc1C(O)c1cc2c(N)nc(-c3ccc(C(F)F)o3)nc2s1 (stereo not shown) [Example 29, [4-Amino-2-(5-difluoromethyl-furan-2-yl)-thieno[2,3-d]pyrimidin-6-yl]-(3-methoxy-pyridin-2-yl)-methanol]	2.39	24.9	–
Nc1nc(-c2ccc(C(F)F)o2)nc2sc(C(O)c3ncccc3Br)cc12 (stereo not shown) [Example 32, [4-Amino-2-(5-difluoromethyl-furan-2-yl)-thieno[2,3-d]pyrimidin-6-yl]-(3-bromo-pyridin-2-yl)-methanol]	1.62	23.5	–
6-(6-Chloro-pyridin-3-ylmethyl)-2-(5-methyl-furan-2-yl)-thieno[2,3-d]pyrimidin-4-ylamine [Example 1]	126	1590	–
Nc1nc(-c2ccc(C(F)F)o2)nc2sc(C(O)c3ncccc3O)cc12 (stereo not shown) [Example 34, 2-{[4-Amino-2-(5-difluoromethyl-furan-2-yl)-thieno[2,3-d]pyrimidin-6-yl]-hydroxy-methyl}-pyridin-3-ol]	4.29	111	–
Nc1nc(-c2ccc(C(F)F)o2)nc2sc(C(O)c3ncccc3F)cc12 (stereo not shown) [Example 23, [4-Amino-2-(5-difluoromethyl-furan-2-yl)-thieno[2,3-d]pyrimidin-6-yl]-(3-fluoro-pyridin-2-yl)-methanol]	3.77	59.5	–

Results, then the molecule that gave them:

Ki [1] [nM]	Ki [2] [nM]	Ki [3] [nM]	Molecule
6.68	353	–	Nc1nc(-c2ncco2)nc2sc(Cc3ccccn3)cc12 [Example 3, 2-Oxazol-2-yl-6-pyridin-2-ylmethyl-thieno[2,3-d]pyrimidin-4-ylamine hydrochloride]
30	489	–	Nc1nc(-c2ncco2)nc2sc(Cc3cccnc3)cc12 [Example 18, 2-Oxazol-2-yl-6-pyridin-3-ylmethyl-thieno[2,3-d]pyrimidin-4-ylamine]
130	337	–	Nc1nc(-c2ccc(C3CC3)o2)nc2sc(Cc3ccccn3)cc12 [Example 20, hydrochloride]
1.18	29.9	–	Cc1ccc(-c2nc(N)c3cc(Cc4ccccn4)sc3n2)o1 [Example 16, 2-(5-Methyl-furan-2-yl)-6-pyridin-2-ylmethyl-thieno[2,3-d]pyrimidin-4-ylamine]
5.25	28.2	–	N#Cc1cccc(-c2nc(N)c3cc(Cc4cccnc4)sc3n2)n1 [Example 21, 6-(4-Amino-6-pyridin-3-ylmethyl-thieno[2,3-d]pyrimidin-2-yl)-pyridine-2-carbonitrile]
2.28	32.6	–	COc1cccnc1Cc1cc2c(N)nc(-c3ccc(C(F)F)o3)nc2s1 [Example 37, 2-(5-Difluoromethyl-furan-2-yl)-6-(3-methoxy-pyridin-2-ylmethyl)-thieno[2,3-d]pyrimidin-4-ylamine]
4.73	61.9	–	Nc1nc(-c2ccc(C(F)F)o2)nc2sc(Cc3ccccn3)cc12 [Example 35, 2-(5-Difluoromethyl-furan-2-yl)-6-pyridin-2-ylmethyl-thieno[2,3-d]pyrimidin-4-ylamine]
9.66	172	–	Nc1nc(-c2cnco2)nc2sc(Cc3ccccn3)cc12 [Example 15, 2-Oxazol-5-yl-6-pyridin-2-ylmethyl-thieno[2,3-d]pyrimidin-4-ylamine]
7.09	100	–	Cc1csc(-c2nc(N)c3cc(Cc4ccccn4)sc3n2)n1 [Example 17, 2-(4-Methyl-thiazol-2-yl)-6-pyridin-2-ylmethyl-thieno[2,3-d]pyrimidin-4-ylamine]
